Consider five compounds from ChEMBL document CHEMBL5380807, “Imidazo[1,2-a]Pyridine Derivatives as Novel Dual-Target Inhibitors of ABCB1 and ABCG2 for Reversing Multidrug Resistance” (J Med Chem, 2023).

One may read the IC50 as the point on the concentration scale where inhibition reaches its midpoint.

Active and inactive are the calls of the source. No cut-off for these calls is given here.

In data set [1] the target is ATP-dependent translocase ABCB1 (Homo sapiens, UniProt P08183). Nature of the data set: Inhibition of ABCB1 (unknown origin) ATPase activity assessed as decrease in luminescence by firefly luciferase reporter assay. On the technique in general: In a reporter assay the amount or activity of a reporter protein is the signal.
The target in data set [2] is T1, Broad substrate specificity ATP-binding cassette transporter ABCG2 (Homo sapiens, UniProt Q9UNQ0).
T1 sequence (Q9UNQ0 whole entry): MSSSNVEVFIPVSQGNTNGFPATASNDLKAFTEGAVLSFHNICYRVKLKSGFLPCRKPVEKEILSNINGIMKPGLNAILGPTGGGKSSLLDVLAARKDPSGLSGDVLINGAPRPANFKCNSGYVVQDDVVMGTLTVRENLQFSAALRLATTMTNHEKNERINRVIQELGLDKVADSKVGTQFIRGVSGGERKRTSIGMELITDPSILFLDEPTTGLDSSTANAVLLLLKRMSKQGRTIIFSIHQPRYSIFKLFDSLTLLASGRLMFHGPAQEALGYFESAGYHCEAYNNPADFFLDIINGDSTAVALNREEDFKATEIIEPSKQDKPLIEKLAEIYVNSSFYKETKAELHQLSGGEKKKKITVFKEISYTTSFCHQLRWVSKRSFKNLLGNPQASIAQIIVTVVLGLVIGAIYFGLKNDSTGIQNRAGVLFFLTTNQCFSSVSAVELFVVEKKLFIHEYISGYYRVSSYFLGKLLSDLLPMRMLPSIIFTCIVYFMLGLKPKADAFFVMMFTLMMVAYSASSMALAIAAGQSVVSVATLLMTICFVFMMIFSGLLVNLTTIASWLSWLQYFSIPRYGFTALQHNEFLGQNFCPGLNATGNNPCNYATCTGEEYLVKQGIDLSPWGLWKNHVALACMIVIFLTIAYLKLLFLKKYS
In words: Inhibition of ABCG2 (unknown origin) ATPase activity assessed as decrease in luminescence by firefly luciferase reporter assay.

Data set [3] in a line: Cytotoxicity against human K562/A02 cells overexpressing ABCB1 assessed as decrease in cell survival rate incubated for 72 hrs by MTS assay. The format is toxicity, cell-based. Background: Tetrazolium dyes change colour on reduction, which living cells bring about.
The nature of data set [4]: Toxicity in BALB/c mouse xenografted with human K562 cells assessed as body weight loss at 1 mg/kg, ip BW for 14 days in presence of verapamil. Format: organism-based. The settings on record: in vivo, 336 h, time 14 day. In general terms: Xenograft models place foreign cells or tissue in a host animal.
In data set [5] the test system is K562. Nature of the data set: Antitumor activity against human K562 cells xenografted in BALB/c mouse assessed as tumor growth inhibition at 1 mg/kg, ip BW for 14 days in presence of verapamil. Format: functional, organism-based. The settings on record: time 14.0 day.
Data set [6] can be described thus: Toxicity in BALB/c mouse xenografted with human K562 cells assessed as body weight loss at 1 mg/kg, ip BW for 14 days. The format is organism-based. The note with it: in vivo, 336 h, time 14 day.
A short description of data set [7]: Toxicity in BALB/c mouse xenografted with human K562/A02 cells overexpressing ABCB1 assessed as body weight loss at 1 mg/kg, ip BW for 14 days in presence of verapamil. The format is organism-based. The settings on record: in vivo, 336 h, time 14 day.
In data set [8] the test system is K562. Nature of the data set: Antitumor activity against human K562 cells xenografted in BALB/c mouse assessed as tumor growth inhibition at 1 mg/kg, ip BW for 14 days. The format is functional, organism-based. The settings on record: time 14.0 day.
Data set [9] is described as follows: Toxicity in BALB/c mouse xenografted with human K562/A02 cells overexpressing ABCB1 assessed as body weight loss at 1 mg/kg, ip BW for 14 days in presence of N-(4-(3-((4-Phenyipiperazin-1-yl)methyl)imidazo[l,2-a]pyridin-2-yl)phenyl)-2-(4-(4-(trifluoromethoxy)phenyl)piperazin-1-yl)acetamide. The format is organism-based. The note with it: in vivo, 336 h, time 14 day.

The test system of data set [10] is K562/A02. In words: Antitumor activity against human K562/A02 cells overexpressing ABCB1 xenografted in BALB/c mouse assessed as tumor growth inhibition at 1 mg/kg, ip BW for 14 days in presence of N-(4-(3-((4-Phenyipiperazin-1-yl)methyl)imidazo[l,2-a]pyridin-2-yl)phenyl)-2-(4-(4-(trifluoromethoxy)phenyl)piperazin-1-yl)acetamide. Format: functional, organism-based. The settings on record: time 14.0 day.

Data set [11] has as its system K562/A02. In words: Antitumor activity against human K562/A02 cells overexpressing ABCB1 xenografted in BALB/c mouse assessed as tumor growth inhibition at 1 mg/kg, ip BW for 14 days. The format is functional, organism-based. The note with it: time 14.0 day.
Data set [12] is described as follows: Toxicity in BALB/c mouse xenografted with human K562 cells assessed as body weight loss at 1 mg/kg, ip BW for 14 days in presence of N-(4-(3-((4-Phenyipiperazin-1-yl)methyl)imidazo[l,2-a]pyridin-2-yl)phenyl)-2-(4-(4-(trifluoromethoxy)phenyl)piperazin-1-yl)acetamide. The format is organism-based. The settings on record: in vivo, 336 h, time 14 day.
In data set [13] the test system is K562. Nature of the data set: Antitumor activity against human K562 cells xenografted in BALB/c mouse assessed as tumor growth inhibition at 1 mg/kg, ip BW for 14 days in presence of N-(4-(3-((4-Phenyipiperazin-1-yl)methyl)imidazo[l,2-a]pyridin-2-yl)phenyl)-2-(4-(4-(trifluoromethoxy)phenyl)piperazin-1-yl)acetamide. The note with it: time 14.0 day. The format is functional, organism-based.

The nature of data set [14]: Toxicity in BALB/c mouse xenografted with human K562/A02 cells overexpressing ABCB1 assessed as body weight loss at 1 mg/kg, ip BW for 14 days. The format is organism-based. The settings on record: in vivo, 336 h, time 14 day.
The test system of data set [15] is K562. Nature of the data set: Reversal of ABCB1 mediated adriamycin resistance in human K562 cells assessed as reduction in survival rate at 1 uM preincubated for 1 hrs followed by adriamycin addition and measured after 72 hrs by MTS assay. Format: functional, cell-based. The settings on record: time 73.0 hrs.
In data set [16] the test system is K562/A02. In words: Reversal of ABCB1 mediated adriamycin resistance in human K562/A02 cells overexpressing ABCB1 assessed as reduction in survival rate at 5 uM preincubated for 1 hrs followed by adriamycin addition and measured after 72 hrs by MTS assay. Format: functional. The settings on record: time 73 hrs.
Data set [17] concerns K562. In words: Reversal of ABCB1 mediated adriamycin resistance in human K562 cells assessed as reduction in survival rate at 5 uM preincubated for 1 hrs followed by adriamycin addition and measured after 72 hrs by MTS assay. The note with it: time 73.0 hrs. Format: functional, cell-based.
In data set [18] the test system is K562/A02. Nature of the data set: Reversal of ABCB1 mediated multidrug resistance in human K562/A02 cells overexpressing ABCB1 assessed as decrease in survival rate at 5 uM preincubated for 1 hrs followed by vincristine addition and measured after 72 hrs by MTS assay. The format is functional. The note with it: time 73 hrs.
The subject of data set [19] is K562. Nature of the data set: Antitumor activity against human K562 cells xenografted in BALB/c mouse assessed as tumor growth inhibition at 20 mg/kg, ip QD for 14 days in presence of adriamycin. The format is functional, organism-based. The note with it: time 14.0 day.
The test system of data set [20] is K562/A02. In words: Reversal of ABCB1 mediated adriamycin resistance in human K562/A02 cells overexpressing ABCB1 assessed as reduction in survival rate at 1 uM preincubated for 1 hrs followed by adriamycin addition and measured after 72 hrs by MTS assay. The format is functional. The note with it: time 73 hrs.
Data set [21] relates to K562/A02. In words: Reversal of ABCB1 mediated adriamycin resistance in human K562/A02 overexpressing ABCB1 assessed as decrease in survival rate at 5 uM preincubated for 1 hrs followed by adriamycin addition and measured after 72 hrs by MTS assay. Format: functional.
A short description of data set [22]: Cytotoxicity against human K562 cells assessed as decrease in cell survival rate incubated for 72 hrs by MTS assay. Format: toxicity, cell-based.
The nature of data set [23]: Cytotoxicity against human HEK293 cells expressing ABCG2 assessed as reduction in cell viability incubated for 72 hrs by SRB assay. Format: toxicity, cell-based.
Data set [24] has as its system HEK293. Nature of the data set: Reversal of ABCG2 mediated mitoxantrone resistance in human HEK293 assessed as decrease in survival rate at 1.25 to 5 uM preincubated for 1 hrs followed by mitoxantrone addition and measured after 72 hrs by SRB assay. Format: functional, cell-based. The note with it: dose 1.25-5 µM, time 73.0 hrs.
Data set [25] deals with K562/A02. Nature of the data set: Reversal of ABCB1 mediated adriamycin resistance in human K562/A02 overexpressing ABCB1 assessed as decrease in survival rate at 1.25 to 5 uM preincubated for 1 hrs followed by adriamycin addition and measured after 72 hrs by MTS assay. The format is functional, cell-based. The settings on record: dose 1.25-5 µM, time 73.0 hrs.
In data set [26] the test system is HEK293. Nature of the data set: Reversal of ABCG2 mediated mitoxantrone resistance in human HEK293 overexpressing ABCG2 assessed as decrease in survival rate at 1.25 to 5 uM preincubated for 1 hrs followed by mitoxantrone addition and measured after 72 hrs by SRB assay. Format: functional, cell-based. The settings on record: dose 1.25-5 µM, time 73.0 hrs.
The nature of data set [27]: Cytotoxicity against human HEK293 cells assessed as reduction in cell viability incubated for 72 hrs by SRB assay. Format: toxicity, cell-based.
Data set [28] concerns K562. Nature of the data set: Reversal of ABCB1 mediated adriamycin resistance in human K562 assessed as decrease in survival rate at 1.25 to 5 uM preincubated for 1 hrs followed by adriamycin addition and measured after 72 hrs by MTS assay. The note with it: dose 1.25-5 µM, time 73.0 hrs. Format: functional, cell-based.

Sequence of ATP-dependent translocase ABCB1 (P08183 whole entry): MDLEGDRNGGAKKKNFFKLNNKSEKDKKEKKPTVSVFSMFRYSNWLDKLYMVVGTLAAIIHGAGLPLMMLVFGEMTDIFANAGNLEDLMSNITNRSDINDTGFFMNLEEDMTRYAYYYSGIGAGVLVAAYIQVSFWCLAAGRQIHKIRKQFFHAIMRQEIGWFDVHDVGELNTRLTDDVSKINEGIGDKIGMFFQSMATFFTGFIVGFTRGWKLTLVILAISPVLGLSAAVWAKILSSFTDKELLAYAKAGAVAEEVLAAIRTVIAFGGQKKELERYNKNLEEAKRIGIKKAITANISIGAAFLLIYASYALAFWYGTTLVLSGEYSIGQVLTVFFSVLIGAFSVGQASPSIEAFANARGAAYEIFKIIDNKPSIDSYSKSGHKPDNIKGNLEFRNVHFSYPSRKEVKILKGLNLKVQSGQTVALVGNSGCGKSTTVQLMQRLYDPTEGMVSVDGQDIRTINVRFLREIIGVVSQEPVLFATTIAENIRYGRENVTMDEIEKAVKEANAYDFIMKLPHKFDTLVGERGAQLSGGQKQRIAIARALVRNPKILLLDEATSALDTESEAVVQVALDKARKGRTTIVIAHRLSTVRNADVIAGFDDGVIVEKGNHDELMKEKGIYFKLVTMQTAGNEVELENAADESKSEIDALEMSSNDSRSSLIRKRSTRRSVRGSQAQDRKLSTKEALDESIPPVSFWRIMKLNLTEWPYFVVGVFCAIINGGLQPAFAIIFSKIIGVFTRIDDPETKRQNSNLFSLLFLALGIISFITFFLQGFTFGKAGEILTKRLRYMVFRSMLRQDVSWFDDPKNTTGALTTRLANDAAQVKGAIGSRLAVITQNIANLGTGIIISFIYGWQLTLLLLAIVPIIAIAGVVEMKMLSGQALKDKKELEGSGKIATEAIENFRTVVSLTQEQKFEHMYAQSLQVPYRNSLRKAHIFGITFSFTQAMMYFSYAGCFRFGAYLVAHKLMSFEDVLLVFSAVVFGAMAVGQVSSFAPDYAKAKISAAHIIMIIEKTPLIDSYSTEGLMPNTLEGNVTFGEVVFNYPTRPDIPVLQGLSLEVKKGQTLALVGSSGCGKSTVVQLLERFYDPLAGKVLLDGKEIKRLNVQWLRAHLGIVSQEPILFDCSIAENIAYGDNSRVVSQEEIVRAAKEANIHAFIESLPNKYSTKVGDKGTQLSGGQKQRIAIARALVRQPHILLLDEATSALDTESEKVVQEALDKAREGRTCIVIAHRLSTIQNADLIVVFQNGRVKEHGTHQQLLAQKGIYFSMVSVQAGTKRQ

On to SODIUM VANADATE, for which the “inhibition (INH)” value in data set [1] and in data set [2] was “Active” throughout.
Consider `CC[C@@]1(O)C(=O)OCc2c1cc1n(c2=O)Cc2cc3c(CN(C)C)c(O)ccc3nc2-1` [TOPOTECAN], for which the “inhibition (INH)” value in [1] and in data set [2] was “Not Active” in each case.
`COc1cccc2c1C(=O)c1c(O)c3c(c(O)c1C2=O)C[C@@](O)(C(=O)CO)C[C@@H]3O[C@H]1C[C@H](N)[C@H](O)[C@H](C)O1.Cl` [DOXORUBICIN HYDROCHLORIDE]: in data set [3], the IC50 at 72 h was 58.6 µM. For the same compound, the Activity result is reported as “Non-Toxic” in data set [4]; “Toxic” in data set [6]; “Non-Toxic” in data set [7]; “Non-Toxic” in data set [9]; “Non-Toxic” in [12]; “Non-Toxic” in data set [14]. In addition, the outcome with K562 [5], in the data set with K562/A02 [11] and in the data set on K562 [13] was inactive. In addition, the result in the data set with K562 [8] and in the data set with K562/A02 [10] was Active.
In the case of `COc1ccc(CCN(C)CCCC(C#N)(c2ccc(OC)c(OC)c2)C(C)C)cc1OC` (configuration not stated), the outcome with K562 [15] and in the data set on K562 [17] was Active. In addition, the Activity worked out at 51% with K562/A02 [16], 56% in the data set with K562/A02 [18] and 70% in the data set on K562/A02 [20]. Besides, the “inhibition (INH)” value in data set [1] is “Not Active”. Further, the result with K562 [19] was inactive.
For the compound `C=CCN(CC=C)CC(=O)Nc1ccc(-c2nc3ccccn3c2CN2CCN(c3ccccc3)CC2)cc1`, the IC50 at 72 h in [3] is above 100 µM; in data set [22] it was above 100 µM; in data set [23], 18.5 µM; in data set [27], 11.8 µM. Further, in the data set with K562/A02 [21], the Activity is listed as below 30%. Further, the outcome with HEK293 [24] and in the data set with K562 [28] was inactive. For the same compound, the outcome in the data set on K562/A02 [25] and in the data set on HEK293 [26] was Active.
